{"source": "patent US3941882A", "about": "“Rodenticidal imidazo-pyridines” (priority 1974, dated 1976)", "key": {"[1]": {"tested_on": "rats (Rattus norvegicus)", "assay": "Rodenticidal effect in rats fed treated diet (Table I)", "format": "in vivo, Spraque-Dawley albino strain, male", "conditions": "per rat", "from_the_text": "A quantity of a standard animal feed of the following composition: Ingredients Percent Lbs./Ton ______________________________________ Corn, Yellow, Ground 42.275 845.5 Oats, Ground 10.0 200.0 Wheat Middlings 10.0 200.0 Soybean Oil Meal, Solvent Extracted Dehulled, 50 % 18.0 360.0 Skimmed Milk, Dried 5.0 100.0 Corn, Distillers Dried Solubles 2.5 50.0 Alfalfa Meal, Dehydrated, 17 % 2.5 50.0 Whey, Whole Dried 1.0 20.0 Fish Meal with Solubles 4.0 80.0 Animal Fat, Beef Tallow 2.0 40.0 Dicalcium Phosphate, Feed Grade 0.5 10.0 Calcium Carbonate 1.0 20.0 Salt 0.3 6.0 Trace Mineral Premix AN-03 0.2 4.0 Vitamin Premix CK-1 0.5 10.0 Vitamin E Premix 0.1 2.0 Methionine Hydroxy Analog (HYDAN) 0.125 2.5 Total 100.00 2000.0 ______________________________________\nwas divided into two portions. To each portion, there was added an amount of 1-methoxy-6-chloro-2-heptafluoro-n-propyl-1H-imidazo(4,5-b)pyridine, so that one portion contained 800 ppm of the compound, and the other portion contained 200 ppm of the compound.\nOther modified feeds were prepared as described above but containing, in lieu of the compound identified above, 1-methoxy-6-bromo-2-heptafluoro-n-propyl-1H-imidazo(4,5-b)pyridine, 6-chloro-2-pentafluoroethyl-1H-imidazo(4,5-)pyridine, or 1-methoxy-6-chloro-2-heptafluoroisopropyl-1H-imidazo(4,5-b)pyridine, in the same or other concentrations,\nEXAMPLES 2-28 Representative compounds were evaluated for rodenticidal effect in rats (Rattus norvegicus, Spraque-Dawley albino strain, male, each weighing 50-60 grams). Each compound to be evaluated was formulated as described in Example 1. Control rats were maintained on the standard animal feed described in Example 1. Control rats and rats to be treated were randomly assigned. Each group contained 5 or 6 rats. Feeding of the respective diet was ad libitum. Consumption per rat per day was checked, except on weekend days, and the rats were weighed and usually necropsied at death or termination of the experiment (generally, day 10).\nIn the evaluation of several of the compounds, the rats were observed closely to determine the day of death. Death occurred on the day marked by \"X\"; where no \"X\" is marked, the rat was found dead on the morning following the last indicated feeding. For the remaining compounds, no such close observation was made, and the rat was found dead on the morning following the last indicated feeding. Generally, the rats were not observed or feed consumption determined on weekend days."}, "[2]": {"tested_on": "whole blood clotting time", "assay": "Prolongation of whole blood clotting time in female rats (Table II)", "format": "in vivo, Rattus norvegicus, Sprague-Dawley strain", "conditions": "0.06 % in diet", "method": "1-Hydroxy-6-chloro-2-pentafluoroethyl-1H-imidazo(4,5-b)-pyridine was evaluated for prolongation of clotting time. The experiment was conducted in female rats (Rattus norvegicus, Sprague-Dawley strain) using a standard laboratory diet. A group of four control rats was fed the unmodified diet and another group of four rats was fed a treated diet, the standard laboratory diet modified by the incorporation therein of 0.06 percent of the 1-hydroxy-6-chloro-2-pentafluoroethyl-1H-imidazo(4,5-b)pyridine.\nOn the sixth day of feeding, a blood sample was taken from each rat and was analyzed for whole blood clotting time. The analysis was carried out on a BBL Fibrometer Precision Coagulation Timer, produced by BBL Fibrometer, a Division of Becton, Dickinson and Co., Canada, Ltd.; at Mississauga, Ontario. Two analyses were made of each sample."}, "[3]": {"tested_on": "rat population (Rattus norwegius)", "assay": "Field trial against a rat population", "format": "in vivo", "conditions": "100 ppm in feed", "method": "A field trial was conducted to evaluate the efficacy of 1-methoxy-5,6-dichloro-2-heptafluoro-n-propyl-1H-imidazo(4,5-b)-pyridine. The trial was conducted in an area of waste ground covered by grass and brush and recently cut off, by construction activity, from a nearby abandoned stockyard. The trial area indicated the presence of a rat population; this was confirmed by supplying to the area a conventional pelleted hog feed. It was consumed steadily at the rate of 8 lbs./day, corresponding to a population of about 145 rats consuming an average of 25 g. of feed/day. After the conventional feed had been supplied for three weeks, the trial period began. The rat species was believed to be Rattus norwegius, and this was later confirmed upon recovery of the dead animals.\nDuring the trial period, the conventional feed was replaced by an adequate supply of a modified feed, which was identical to the conventional feed except that it contained 100 ppm (0.01 percent) of 1-methoxy-5,6-dichloro-2-heptafluoro-n-propyl-1H-imidazo(4,5-b)pyridine.\nFood consumption was estimated visually and was as follows, counting the initiation of the trial period as the first day: […]"}, "[4]": {"tested_on": "prothrombin time", "assay": "Prothrombin time in male rats (Tables III and IV)", "format": "in vivo, rats (Harlan albino strain)", "conditions": "group of 5 rats; for Deaths / Range of Prothrombin Time: five days", "method": "Representative compounds were evaluated for prothrombin time in standard laboratory male rats (Harlan albino strain) of weanling age. A standard laboratory animal diet was fed to one group of 5 rats to serve as a control; other groups of 5 rats received modified diets, each diet being the standard laboratory animal diet modified by the incorporation therein of 0.08 percent of the respective compound. Feeding was continued for five days, at which time a blood sample was taken from each rat and analyzed for prothrombin time. The analytical method was that of A. J. Quick, \"The Determination of Prothrombin,\" 190 Am. J. Med. Sci. 501 (1935): and it was performed on the \"Electra 600\", a machine available from the Medical Laboratory Automation, Inc. The results are reported in Table III.\nAdditional evaluations of the effect of representative compounds of prothrombin time were conducted. The procedures were the same as those reported in Examples 30-33 except that the concentration of the respective compound was 0.02 percent."}}, "note": "“Also recorded” adds a separate entry of the source.", "data": [{"compound": "COCOn1c(C(F)(F)F)nc2ncc(Cl)cc21", "note": "[1-(methoxymethoxy)-6-chloro-2-trifluoromethyl-1H-imidazo(4,5-b)pyridine]", "values": [{"measurement": "Weight change", "setting": "[1]; 700 ppm in diet", "value": "+13 grams"}]}, {"compound": "C=CCOn1c(C(F)(F)C(F)F)nc2nc(Cl)c(Cl)cc21", "note": "[1-allyloxy-5,6-dichloro-2-(1,1,2,2-tetrafluoroethyl)-1H-imidazo(4,5-b)pyridine]", "values": [{"measurement": "Weight change", "setting": "[1]; 100 ppm in diet", "value": 0, "unit": "grams"}]}, {"compound": "O=C(C=Cc1ccccc1)On1c(C(F)(F)F)nc2ncc(Cl)cc21", "note": "[1-cinnamoyloxy-6-chloro-2-trifluoromethyl-1H-imidazo(4,5-b)pyridine]", "values": [{"measurement": "Necropsy results", "setting": "[1]; 1000 ppm in diet", "value": "SH, IH"}]}, {"compound": "On1c(C(F)(F)C(F)(F)F)nc2ncc(Cl)cc21", "note": "[1-hydroxy-6-chloro-2-pentafluoroethyl-1H-imidazo(4,5-b)pyridine]", "values": [{"measurement": "Death during clotting time study", "setting": "[2]; per animal", "value": "died on day 5; also recorded: died on day 6"}, {"measurement": "Whole Blood Clotting Time", "setting": "[2]; sixth day of feeding, two analyses per sample", "value": "> 600", "unit": "s"}]}, {"compound": "CC(C)On1c(C(F)(F)F)nc2nc(Cl)c(Cl)cc21", "note": "[1-isopropoxy-5,6-dichloro-2-trifluoromethyl-1H-imidazo(4,5-b)pyridine]", "values": [{"measurement": "Weight change", "setting": "[1]; 200 ppm in diet", "value": 0, "unit": "grams"}]}, {"compound": "COn1c(C(F)(F)C(F)(F)C(F)(F)F)nc2nc(Cl)c(Cl)cc21", "note": "[1-methoxy-5,6-dichloro-2-heptafluoro-n-propyl-1H-imidazo(4,5-b)pyridine]", "values": [{"measurement": "Bait shyness", "setting": "[3]", "value": "no bait shyness"}, {"measurement": "Eradication of rodents from the trial area", "setting": "[3]", "value": "essentially complete eradication of rodents from the trial area"}, {"measurement": "First day rat corpses were found", "setting": "[3]", "value": 4, "unit": "days"}, {"measurement": "Necropsy of corpses", "setting": "[3]; 31 of 40 corpses necropsied", "value": "uniformly showed internal hemorrhage, generally of the intestines"}, {"measurement": "Corpses found", "setting": "[3]; total", "value": 40, "unit": "corpses"}]}, {"compound": "COn1c(C(F)(F)F)nc2nc(Cl)c(Cl)cc21", "note": "[1-methoxy-5,6-dichloro-2-trifluoromethyl-1H-imidazo(4,5-b)pyridine]", "values": [{"measurement": "Weight change", "setting": "[1]; 200 ppm in diet", "value": -12, "unit": "grams"}]}, {"compound": "COn1c(C(F)(F)F)nc2nc(Cl)ccc21", "note": "[1-methoxy-5-chloro-2-trifluoromethyl-1H-imidazo(4,5-b)pyridine]", "values": [{"measurement": "Weight change", "setting": "[1]; 800 ppm in diet", "value": -11, "unit": "grams"}]}, {"compound": "COn1c(C(F)(F)C(F)(F)C(F)(F)F)nc2ncc(Br)cc21", "note": "[1-methoxy-6-bromo-2-heptafluoro-n-propyl-1H-imidazo(4,5-b)pyridine]", "values": [{"measurement": "Necropsy results", "setting": "[1]; 200 ppm in diet", "value": "LH, IH"}]}, {"compound": "COn1c(C(F)(F)C(F)(F)C(F)(F)F)nc2ncc(Cl)cc21", "note": "[1-methoxy-6-chloro-2-heptafluoro-n-propyl-1H-imidazo(4,5-b)pyridine]", "values": [{"measurement": "Necropsy results (in words)", "setting": "[1]; 200 ppm in diet", "value": "bloody nose"}, {"measurement": "Necropsy results (in words)", "setting": "[1]; 800 ppm in diet", "value": "bloody nose"}]}, {"compound": "COn1c(C(F)(C(F)(F)F)C(F)(F)F)nc2ncc(Cl)cc21", "note": "[1-methoxy-6-chloro-2-heptafluoroisopropyl-1H-imidazo(4,5-b)pyridine]", "values": [{"measurement": "Necropsy results", "setting": "[1]; 200 ppm in diet", "value": "TH, SH"}, {"measurement": "Necropsy results", "setting": "[1]; 300 ppm in diet", "value": "AH, TH, SH; also recorded: TH, Test.H"}]}, {"compound": "COn1c(C(F)(F)C(F)(F)F)nc2ncc(Cl)cc21", "note": "[1-methoxy-6-chloro-2-pentafluoroethyl-1H-imidazo(4,5-b)pyridine]", "values": [{"measurement": "Deaths", "setting": "[4]; 0.02 percent in diet", "value": "none"}, {"measurement": "Range of Prothrombin Time", "setting": "[4]; 0.02 percent in diet", "value": "53.1 to 90.5", "unit": "s"}, {"measurement": "Deaths", "setting": "[4]; 0.08 percent in diet", "value": 3}, {"measurement": "Range of Prothrombin Time", "setting": "[4]; 0.08 percent in diet", "value": "180 to 200", "unit": "s"}, {"measurement": "Day(s) of deaths", "setting": "[4]; 0.08 percent in diet", "value": "170000 to 350000", "unit": "s"}]}, {"compound": "CNC(=O)On1c(C(F)(F)F)nc2ncc(Cl)cc21", "note": "[1-methylcarbamoyloxy-6-chloro-2-trifluoromethyl-1H-imidazo(4,5-b)pyridine]", "values": [{"measurement": "Deaths", "setting": "[4]; 0.02 percent in diet", "value": "none"}, {"measurement": "Range of Prothrombin Time", "setting": "[4]; 0.02 percent in diet", "value": "17.6 to 22.1", "unit": "s"}, {"measurement": "Deaths", "setting": "[4]; 0.08 percent in diet", "value": "none"}, {"measurement": "Range of Prothrombin Time", "setting": "[4]; 0.08 percent in diet", "value": "39.6 to 98.6", "unit": "s"}]}, {"compound": "CC(C)(C)C(=O)On1c(C(F)(F)F)nc2ncc(Cl)cc21", "note": "[1-pivaloyloxy-6-chloro-2-trifluoromethyl-1H-imidazo(4,5-b)pyridine]", "values": [{"measurement": "Necropsy results", "setting": "[1]; 750 ppm in diet", "value": "TH, IH; also recorded: NH, IH"}, {"measurement": "Necropsy results", "setting": "[1]; 1500 ppm in diet", "value": "NH, IH"}]}, {"compound": "FC(F)(F)c1nc2nc(Cl)c(Cl)cc2[nH]1", "note": "[5,6-dichloro-2-trifluoromethyl-1H-imidazo(4,5-b)pyridine]", "values": [{"measurement": "Weight change", "setting": "[1]; 50 ppm in diet", "value": "+13 grams"}]}, {"compound": "FC(F)C(F)(F)c1nc2ncc(Cl)cc2[nH]1", "note": "[6-chloro-2-(1,1,2,2-tetrafluoroethyl)-1H-imidazo(4,5-b)pyridine]", "values": [{"measurement": "Necropsy results", "setting": "[1]; 150 ppm in diet", "value": "TH, SIH; also recorded: NH, IH"}]}, {"compound": "FC(F)(F)c1nc2ncc(Cl)cc2[nH]1", "note": "[6-chloro-2-trifluoromethyl-1H-imidazo(4,5-b)pyridine]", "values": [{"measurement": "Deaths", "setting": "[4]; 0.02 percent in diet", "value": "none"}, {"measurement": "Deaths", "setting": "[4]; 0.08 percent in diet", "value": 5}, {"measurement": "Day(s) of deaths", "setting": "[4]; 0.08 percent in diet", "value": "three"}]}]}
